Source: BindingDB's records for patent US20260042754 (Nodus Oncology, 2026)

Target: Poly(ADP-ribose) glycohydrolase (Homo sapiens, UniProt Q86W56)
Experiment: PARG Enzymatic Assay
Procedure: Inhibition of PARG enzymatic activity by compounds was determined as follows: Recombinant His-tagged human PARG protein expressed in Sf21 insect cells (Adipogen AG, #40T-0022) was aliquoted and stored at −80° C. until use. The artificial enzyme substrate 4-(trifluoromethyl)umbelliferone (TFMU)-ADPr was prepared essentially as described (Drown B S et al, Cell Chemical Biology 2018) and stored at −20° C. as 10 mM stock solutions in DMSO (dimethyl sulfoxide) until use. For reactions, typical final concentration of the enzyme was 1 nM and of the TFMU-ADPr 200 μM. Reactions were carried out in black 384-well low volume round bottom assay plates (Corning, #4514) in a final volume of 10 μL. To this end, PARG was diluted to 1.67 nM in reaction buffer (50 mM K2HPO4, 50 mM KCl, 10 mM β-mercaptoethanol, pH 7.4) and 6 μL were dispensed per assay well using a multichannel pipette. […] Fluorescence intensity signals were then measured after 30 minutes on an EnVision microplate reader (PerkinElmer) using 380/10 nm and 535/25 nm filters for the excitation and emission, respectively (gain: 150). […]

Chain of Poly(ADP-ribose) glycohydrolase (Q86W56 whole entry): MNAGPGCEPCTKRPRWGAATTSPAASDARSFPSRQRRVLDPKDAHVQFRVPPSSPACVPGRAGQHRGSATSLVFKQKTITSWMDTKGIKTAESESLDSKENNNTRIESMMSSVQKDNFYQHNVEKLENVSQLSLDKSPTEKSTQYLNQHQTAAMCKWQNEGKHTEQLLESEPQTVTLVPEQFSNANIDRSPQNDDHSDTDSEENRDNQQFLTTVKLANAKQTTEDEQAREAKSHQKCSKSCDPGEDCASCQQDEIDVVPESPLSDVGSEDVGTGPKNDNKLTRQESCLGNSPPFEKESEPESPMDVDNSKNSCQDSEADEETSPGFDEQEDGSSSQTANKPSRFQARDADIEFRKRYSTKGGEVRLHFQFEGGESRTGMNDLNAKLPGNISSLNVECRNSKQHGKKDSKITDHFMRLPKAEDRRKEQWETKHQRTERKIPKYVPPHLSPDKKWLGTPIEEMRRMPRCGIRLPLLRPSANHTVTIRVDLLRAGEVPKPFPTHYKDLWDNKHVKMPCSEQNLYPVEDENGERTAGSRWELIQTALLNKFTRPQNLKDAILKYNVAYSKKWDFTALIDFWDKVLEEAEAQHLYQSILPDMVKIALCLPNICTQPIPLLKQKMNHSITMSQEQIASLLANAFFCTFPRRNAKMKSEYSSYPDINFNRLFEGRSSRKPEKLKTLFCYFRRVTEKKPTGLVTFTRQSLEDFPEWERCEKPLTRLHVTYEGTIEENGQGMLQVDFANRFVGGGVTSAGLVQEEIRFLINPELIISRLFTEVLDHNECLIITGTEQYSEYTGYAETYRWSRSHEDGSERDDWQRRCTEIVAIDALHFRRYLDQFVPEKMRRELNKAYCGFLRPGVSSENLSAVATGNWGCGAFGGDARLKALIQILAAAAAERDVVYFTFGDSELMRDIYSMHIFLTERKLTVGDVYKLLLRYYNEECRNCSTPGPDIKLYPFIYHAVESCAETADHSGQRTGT

SMILES: CO/N=c1\[nH]c2c(N3CCN(C(=O)C4(C(F)(F)F)CC4)[C@H](C)C3)cc(S(=O)(=O)NC3(C)CC3)cc2c(=O)n1Cc1cnn(C)c1 [US20260042754, Example 32]
- IC50: < 30 nM
